{"source": "patent US5658943A", "about": "“Phenylalanine derivatives as endothelin antagonists” (Warner-Lambert Company, priority 1995, dated 1997)", "key": {"[1]": {"target": "T1, recombinant human ETB R (Homo sapiens, UniProt P24530)", "T1 construct": "expressed in transfected cells; host or cells: CHO-K1 cells (membranes)", "T1 sequence (P24530 27-442)": "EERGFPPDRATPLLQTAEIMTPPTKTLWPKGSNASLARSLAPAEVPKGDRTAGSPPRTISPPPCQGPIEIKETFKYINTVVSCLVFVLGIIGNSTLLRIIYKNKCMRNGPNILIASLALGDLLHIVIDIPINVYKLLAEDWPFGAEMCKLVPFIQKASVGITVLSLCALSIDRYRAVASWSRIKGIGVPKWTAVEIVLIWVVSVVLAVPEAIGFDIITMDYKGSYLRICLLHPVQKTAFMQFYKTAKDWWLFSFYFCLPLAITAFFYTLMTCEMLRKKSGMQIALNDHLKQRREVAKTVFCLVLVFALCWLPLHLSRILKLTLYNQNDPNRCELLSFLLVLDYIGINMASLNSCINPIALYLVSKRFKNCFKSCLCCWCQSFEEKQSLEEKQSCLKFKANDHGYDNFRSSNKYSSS", "test": "[125I]-ET-1 radioligand binding, CHO-K1 cells expressing recombinant human ETB R (HERBA-B)", "conditions": "[125I]-ET-1 (40 pM), 2 hours at 37° C."}, "[2]": {"target": "T2, recombinant human ETA R (Homo sapiens, UniProt P25101)", "T2 construct": "expressed in transfected cells; host or cells: Ltk- cells (membranes)", "T2 sequence (P25101 21-427)": "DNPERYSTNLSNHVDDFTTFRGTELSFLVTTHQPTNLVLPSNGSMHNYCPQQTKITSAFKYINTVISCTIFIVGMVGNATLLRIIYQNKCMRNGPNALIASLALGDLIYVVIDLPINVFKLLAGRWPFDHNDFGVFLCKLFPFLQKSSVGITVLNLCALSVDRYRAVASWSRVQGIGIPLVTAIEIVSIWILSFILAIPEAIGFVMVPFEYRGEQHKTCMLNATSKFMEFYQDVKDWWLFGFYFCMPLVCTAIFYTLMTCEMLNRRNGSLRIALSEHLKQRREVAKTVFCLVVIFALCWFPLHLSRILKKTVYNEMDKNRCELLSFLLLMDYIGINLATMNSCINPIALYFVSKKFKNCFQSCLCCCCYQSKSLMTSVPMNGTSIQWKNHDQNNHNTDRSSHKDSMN", "test": "[125I]-ET-1 radioligand binding, Ltk- cells expressing recombinant human ETA R (HERBA-A)", "conditions": "[125I]-ET-1 (40 pM), 2 hours at 37° C.", "protocol": "(§1) The compounds of Formula I are valuable antagonists of endothelin.\n(§2) The following cultured cells were used in binding experiments: rabbit renal artery vascular smooth muscle cells (ERBA-A), Ltk-cells expressing recombinant human ETA R (HERBA-A), and CHO-K1 cells expressing recombinant human ETB R (HERBA-B).\n(§3) Membranes were prepared from cultured cells by lysing cells in cold lysis buffer (5 mM HEPES, 2 mM EDTA, pH 7.4) and homogenizing with a Dounce \"A\" homogenizer. The homogenate was centrifuged at 30,000×g for 20 minutes at 4° C. Membrane pellets were suspended in cold buffer containing 20 mM Tris, 2 mM EDTA, 200 μM Pefabloc, 10 μM phosphoramidon, 10 μM leupeptin, 1 μM pepstatin at pH 7.4 and frozen at -80° C. until use. Membranes were thawed and homogenized with a Brinkmann Polytron then diluted in tissue buffer containing 20 mM Tris, 2 mM EDTA, 200 μM Pefabloc and 100 μM bacitracin (pH 7.4). Radioligand and competing ligands were prepared in binding buffer containing 20 mMTris, 2 mM EDTA, and 0.1% BSA.\n(§4) Competing binding assays were initiatedby combining membranes, [125I]-ET-1 (40 pM) and the competing ligand in a final volume of 250 μL and incubating for 2 hours at 37° C. The assay was terminated by filtration over Whatman GF/B filters which were presoaked with 50 mM Tris, pH 7.4 containing 0.2% BSA and 100 μM bacitracin. Nonspecific binding was defined as binding in the presence of 100 nMET-1."}, "[3]": {"system": "ETA /ETB receptor", "conditions": "in vivo; cited from earlier work"}, "[4]": {"target": "T3, rabbit renal artery vascular smooth muscle cells (ETA) (Oryctolagus cuniculus, UniProt A5A8K3)", "T3 construct": "endogenous in cells; host or cells: cultured rabbit renal artery vascular smooth muscle cells (membranes)", "T3 sequence (A5A8K3 21-427)": "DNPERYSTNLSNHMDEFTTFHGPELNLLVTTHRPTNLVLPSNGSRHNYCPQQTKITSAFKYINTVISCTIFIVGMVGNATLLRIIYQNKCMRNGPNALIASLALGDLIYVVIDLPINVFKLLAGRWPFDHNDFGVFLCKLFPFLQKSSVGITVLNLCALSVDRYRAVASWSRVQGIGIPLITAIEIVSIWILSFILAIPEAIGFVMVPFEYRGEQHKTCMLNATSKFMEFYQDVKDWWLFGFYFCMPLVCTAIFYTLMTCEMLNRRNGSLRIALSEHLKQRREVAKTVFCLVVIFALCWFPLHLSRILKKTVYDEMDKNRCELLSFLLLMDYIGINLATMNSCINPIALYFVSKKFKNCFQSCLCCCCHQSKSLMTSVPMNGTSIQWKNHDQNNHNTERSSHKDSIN", "test": "[125I]-ET-1 radioligand binding, rabbit renal artery vascular smooth muscle cells (ERBA-A)", "conditions": "[125I]-ET-1 (40 pM), 2 hours at 37° C.", "protocol": "as §1, §2, §3, §4"}, "[5]": {"system": "rat cerebellum (ETB)", "test": "inhibition of ET-1 stimulated arachidonic acid release (AAR-B)", "type": "cell-based", "conditions": "ET-1 (0.3 nM) stimulated [3H]arachidonic acid release, 30 minutes", "from_the_text": "as §1"}, "[6]": {"system": "ETB", "conditions": "isolated, endothelium-intact porcine pulmonary arteries; cited from earlier work"}, "[7]": {"system": "endothelin receptor", "conditions": "rats; cited from earlier work"}, "[8]": {"system": "endothelin receptor", "conditions": "rats; cited from earlier work", "remark": "listed apart in the source"}, "[9]": {"system": "ETA", "conditions": "mouse model of endotoxic shock; cited from earlier work"}, "[10]": {"system": "ET receptor", "conditions": "allergic sheep; cited from earlier work"}, "[11]": {"system": "ETA", "conditions": "in vivo; cited from earlier work"}}, "note": "pIC50: −log10 of the molar value. Where a SMILES comes first, the peptide text is derived from it. [ ]: non-standard residue; d: D form."}
{"molecule": "CC(C)c1ccc(S(=O)(=O)NC(C(=O)O)C(c2ccc3c(c2)OCO3)c2ccc3c(c2)OCO3)cc1", "note": "(racemic) [Example 40, (R,S)-3,3-Bis-benzo[1,3]dioxol-5-yl-2-(4-isopropyl-benzenesulfonylamino)-propionic acid]", "values": [{"measurement": "pIC50", "setting": "[1]", "value": 4.80}, {"measurement": "pIC50", "setting": "[2]", "value": 5.40}]}
{"molecule": "O=C(NC(C(=O)O)C(c1ccc2c(c1)OCO2)c1ccc2c(c1)OCO2)C(c1ccccc1)c1ccccc1", "note": "(centres unmarked) [Example 21, 3,3 -Bis-benzo[1,3]dioxol-5-yl-2-diphenylacetylamino-propionic acid]", "values": [{"measurement": "pIC50", "setting": "[1]", "value": 5.60}, {"measurement": "pIC50", "setting": "[2]", "value": 5.89}]}
{"molecule": "CCCOc1ccc2c(c1)[C@@H](c1ccc(OC)cc1OCC(=O)O)[C@H](C(=O)O)[C@H]2c1ccc2c(c1)OCO2", "note": "[SB 209670]", "values": [{"measurement": "neointimal formation after angioplasty", "setting": "[3]", "value": "reduced neointimal formation"}]}
{"molecule": "COc1cccc(CC(NC(=O)C(c2ccccc2)c2ccccc2)C(=O)O)c1OCCc1ccccc1", "note": "(racemic) [Example 4, (R,S)-2-Diphenylacetylamino-3-[3-methoxy-2-(2-phenyl-ethoxy)phenyl]propionic acid]", "values": [{"measurement": "pIC50", "setting": "[1]", "value": 6.00}, {"measurement": "pIC50", "setting": "[2]", "value": 5.47}, {"measurement": "pIC50", "setting": "[4]", "value": 4.80}, {"measurement": "pIC50", "setting": "[5]", "value": 5.21}]}
{"molecule": "COc1ccc(C(c2ccc3c(c2)OCO3)C(NC(=O)C(c2ccccc2)c2ccccc2)C(=O)O)cc1OCc1ccccc1", "note": "(racemic) [Example 23, (R,S: R,S)-3-Benzo[1,3]dioxol-5-yl-3-(3-benzyloxy-4-methoxyphenyl)-2-diphenyl-acetylaminopropionic acid]", "values": [{"measurement": "pIC50", "setting": "[1]", "value": 4.92}, {"measurement": "pIC50", "setting": "[2]", "value": 4.57}]}
{"molecule": "COc1cccc(CC(NC(=O)N(c2ccccc2)c2ccccc2)C(=O)O)c1OCc1ccccc1", "note": "(racemic) [Example 5, (R,S)-3-(2Benzyloxy-3-methoxyphenyl)-2-(3,3-diphenyl-ureido) propionic acid]", "values": [{"measurement": "pIC50", "setting": "[1]", "value": 5.17}, {"measurement": "pIC50", "setting": "[4]", "value": 4.89}]}
{"molecule": "COc1cccc(CC(NC(=O)C(c2ccccc2)c2ccccc2)C(=O)O)c1OCCCc1ccccc1", "note": "(racemic) [Example 7, (R,S)-Diphenylacetylamino-3-[3-methoxy-2-(3-phenyl-propoxy)phenyl]propionicacid]", "values": [{"measurement": "pIC50", "setting": "[1]", "value": 5.03}, {"measurement": "pIC50", "setting": "[2]", "value": 5.03}]}
{"molecule": "COc1cccc(SC(c2cccc(OC)c2)C(NC(=O)C(c2ccccc2)c2ccccc2)C(=O)O)c1", "note": "(racemic) [Example 35, (R,S; R,S)-2-Diphenylacetylamino-3-(3-methoxyphenyl)-3-(3-methoxyphenyl-sulfanyl)propionic acid]", "values": [{"measurement": "pIC50", "setting": "[1]", "value": 5.52}, {"measurement": "pIC50", "setting": "[2]", "value": 5.74}]}
{"molecule": "COc1cccc(CC(NCC(c2ccccc2)c2ccccc2)C(=O)O)c1OCc1ccccc1", "note": "(racemic) [Example 16, (R,S)-3-(2-Benzyloxy-3-methoxyphenyl)-2-(2,2-diphenyl-ethylamino)propionic acid]", "values": [{"measurement": "pIC50", "setting": "[1]", "value": 5.01}, {"measurement": "pIC50", "setting": "[4]", "value": 5.15}]}
{"molecule": "COc1cccc(CC(NC(=O)C(c2ccccc2)c2ccccc2)C(=O)O)c1OCc1ccccc1", "note": "(racemic) [Example 3, (R,S)-N-(Diphenylacetyl)-3-methoxy-2-(phenylmethoxy)-phenylalanine]", "values": [{"measurement": "pIC50", "setting": "[1]", "value": 5.70}, {"measurement": "pIC50", "setting": "[2]", "value": 5.47}, {"measurement": "pIC50", "setting": "[5]", "value": 5.00}]}
{"molecule": "COc1cccc(CC(NC(=O)C(Cc2cccc3ccccc23)Cc2cccc3ccccc23)C(=O)O)c1OCc1ccccc1", "note": "(racemic) [Example 9, (R,S)-3-(2-Benzyloxy-3-methoxyphenyl)-2-(3-naphthalen-1-yl-2-naphthalen-1-ylmethylpropionylamino)propionic acid]", "values": [{"measurement": "pIC50", "setting": "[1]", "value": 5.66}, {"measurement": "pIC50", "setting": "[4]", "value": "< 4.60"}]}
{"molecule": "COc1cccc(CC(NC(=O)C(c2ccccc2)C2CCCC2)C(=O)O)c1OCc1ccccc1", "note": "(racemic) [Example 10, (R,S; R,S)-3-(2-Benzyloxy-3-methoxyphenyl)-2-(2-cyclopentyl-2-phenyl-acetylamino)propionic acid]", "values": [{"measurement": "pIC50", "setting": "[1]", "value": 5.66}, {"measurement": "pIC50", "setting": "[4]", "value": 4.64}]}
{"molecule": "ET[1,3,11,15-Ala]", "values": [{"measurement": "vasorelaxation", "setting": "[6]", "value": "caused vasorelaxation"}]}
{"molecule": "O=C(O)C(Cc1ccccc1OCc1ccccc1)NC(=O)C(c1ccccc1)c1ccccc1", "note": "(racemic) [Example 14, (R,S)-3-(2-Benzyloxyphenyl)-2-diphenylacetylamino-propionic acid]", "values": [{"measurement": "pIC50", "setting": "[1]", "value": 4.64}, {"measurement": "pIC50", "setting": "[4]", "value": "< 4.60"}]}
{"molecule": "COc1cccc(CC(NC(=O)C(c2ccccc2)c2ccccc2)C(=O)O)c1Oc1ccc([N+](=O)[O-])cc1", "note": "(racemic) [Example 8, (R,S)-2-Diphenylacetylamino-3-[3-method-2-(4-nitro-phenol)phenyl]propionicacid]", "values": [{"measurement": "pIC50", "setting": "[2]", "value": "< 4.60"}, {"measurement": "pIC50", "setting": "[4]", "value": 4.77}]}
{"molecule": "O=C(NC(C(=O)O)C(c1ccc2c(c1)OCO2)c1ccc2c(c1)OCO2)c1ccc2c(c1)OCO2", "note": "(racemic) [Example 38, (R,S)-2-[(Benzo[1,3]dioxole-5-carbonyl)-amino]-3,3-bis-benzo [1,3]dioxol-5-yl-propionic acid]", "values": [{"measurement": "pIC50", "setting": "[1]", "value": 4.89}, {"measurement": "pIC50", "setting": "[2]", "value": 5.89}]}
{"molecule": "COc1cccc(Oc2c(NS(=O)(=O)c3ccc(C(C)(C)C)cc3)ncnc2OCCO)c1", "note": "[RO 46-2005]", "values": [{"measurement": "efficacy in model of acute renal ischemia", "setting": "[7]", "value": "effective"}, {"measurement": "efficacy in model of subarachnoid hemorrhage", "setting": "[8]", "value": "effective"}]}
{"molecule": "CC(C)C[C@@H]1NC(=O)[C@@H](C(C)C)NC(=O)[C@@H]2CCCN2C(=O)[C@@H](CC(=O)O)NC(=O)[C@@H](Cc2c[nH]c3ccccc23)NC1=O", "note": "[BQ-123] (cyclo(L[dW][dD]P[dV]))", "values": [{"measurement": "survival rate", "setting": "[9]", "value": "significantly increased"}, {"measurement": "ET-1 induced bronchoconstriction and tracheal smooth muscle contraction", "setting": "[10]", "value": "block"}, {"measurement": "early cerebral vasospasm following subarachnoid hemorrhage", "setting": "[11]", "value": "prevent early cerebral vasospasm"}]}
